Patent US8026257B2 (Bristol-Myers Squibb Company, priority 2007, dated 2011)
Read-outs that look alike come from different tables or passages of the source.

Legend:
NK-1 = molecular target: T1, NK-1 (Homo sapiens, UniProt P25103); assay: NK1 radioligand binding assay ([125I]Substance P, U373 membranes); details: U373 cell membranes, 200 pM [125I]Substance P, 1 hour at room temperature
T1 construct: 30 ul/well of a 2×U373 membrane preparation
Summary of the method: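 U373 cell membranes incubated 1 h at room temperature with [125I]Substance P at its Kd (added as 400 pM 2× solution) in Tris-Cl pH 7.5 with MgCl2, BSA, bacitracin and protease inhibitors. Bound radioligand collected on PEI-treated GF/B filters and counted. IC50 from four-parameter fit of triplicates; L-733,060 defined 100% inhibition.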

hSERT = hSERT (Homo sapiens, UniProt P31645); assay: SERT radioligand binding assay ([125I]RTI-55, HEK-hSERT membranes); details: HEK-293 hSERT membranes, 260 pM [125I]RTI-55, 1 hour at room temperature
Chain of hSERT (P31645 whole entry): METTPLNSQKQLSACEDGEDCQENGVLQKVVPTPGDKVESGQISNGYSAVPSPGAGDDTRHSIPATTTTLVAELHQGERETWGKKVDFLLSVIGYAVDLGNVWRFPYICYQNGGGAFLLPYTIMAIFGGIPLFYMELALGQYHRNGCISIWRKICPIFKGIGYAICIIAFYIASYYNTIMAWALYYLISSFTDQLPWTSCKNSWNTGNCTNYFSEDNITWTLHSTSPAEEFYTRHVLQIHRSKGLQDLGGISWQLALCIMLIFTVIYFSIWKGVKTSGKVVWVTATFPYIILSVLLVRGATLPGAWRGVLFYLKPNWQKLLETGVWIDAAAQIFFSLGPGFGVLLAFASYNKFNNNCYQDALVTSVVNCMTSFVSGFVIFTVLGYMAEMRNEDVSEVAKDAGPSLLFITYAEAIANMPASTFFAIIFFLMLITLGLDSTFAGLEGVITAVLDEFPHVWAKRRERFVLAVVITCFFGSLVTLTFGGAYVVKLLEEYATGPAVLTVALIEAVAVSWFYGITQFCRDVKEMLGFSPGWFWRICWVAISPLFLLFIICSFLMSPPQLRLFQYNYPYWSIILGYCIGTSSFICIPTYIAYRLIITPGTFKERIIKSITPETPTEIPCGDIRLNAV
Summary of the method: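 Crude membranes from HEK-293 cells expressing hSERT (15 ug/ml, 2× stock) were incubated 1 hour at room temperature with [125I]RTI-55 (520 pM, 2× stock; at Kd) in pH 7.5 Tris, 120 mM NaCl, 5 mM KCl. Bound ligand was collected by GF/B filtration and scintillation counted. IC50 came from four-parameter fit, fluoxetine defining 100% inhibition.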

T1 sequence (P25103 whole entry): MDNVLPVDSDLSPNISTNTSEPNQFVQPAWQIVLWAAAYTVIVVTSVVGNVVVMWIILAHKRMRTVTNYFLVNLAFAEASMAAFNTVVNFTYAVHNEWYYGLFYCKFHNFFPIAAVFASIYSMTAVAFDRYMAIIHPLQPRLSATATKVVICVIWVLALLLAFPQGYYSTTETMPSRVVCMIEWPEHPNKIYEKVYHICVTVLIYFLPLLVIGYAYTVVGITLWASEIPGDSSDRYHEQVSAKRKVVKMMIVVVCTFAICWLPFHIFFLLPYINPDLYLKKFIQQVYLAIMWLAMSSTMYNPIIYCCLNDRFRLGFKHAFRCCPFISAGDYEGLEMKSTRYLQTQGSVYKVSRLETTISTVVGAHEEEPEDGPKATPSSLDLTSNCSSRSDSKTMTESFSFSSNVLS

| Compound | IC50 (NK-1) [nM] | IC50 (hSERT; read-out: SERT IC50) [nM] | IC50 (hSERT; SERT IC50 (nM)) [nM] |
| --- | --- | --- | --- |
| CCn1cnc2c(C(C)OCC3(c4ccccc4)CCN(C)CC3)cc(C(F)(F)F)cc21 (single isomer, unassigned) [Example 137] | 100 to 300 | 0.01 to 100 |  |
| Cn1ncc2cc(-c3ccc(C#N)cc3)cc(COCC3(c4ccccc4)CCNCC3)c21 [Example 4, 4-(1-Methyl-7-(((4-phenylpiperidin-4-yl)methoxy)methyl)-1H-indazol-5-yl)benzonitrile] | 100 to 300 | 0.01 to 100 |  |
| Cn1cc2cc(-c3ccc(C#N)cc3)cc(COCC3(c4ccccc4)CCNCC3)c2n1 [Example 5, 4-(2-Methyl-7-(((4-phenylpiperidin-4-yl)methoxy)methyl)-2H-indazol-5-yl)benzonitrile] | > 300 | 0.01 to 100 |  |
| CN1CCC(COCc2cc(C(F)(F)F)cc3cn[nH]c23)(c2ccccc2)CC1 [Example 10, 7-(((1-Methyl-4-phenylpiperidin-4-yl)methoxy)methyl)-5-(trifluoromethyl)-1H-indazole] | 0.01 to 100 | 0.01 to 100 |  |
| Cn1cc2cc(C(F)(F)F)cc(COCC3(c4ccccc4)CCNCC3)c2n1 [Example 12, 2-Methyl-7-(((4-phenylpiperidin-4-yl)methoxy)methyl)-5-(trifluoromethyl)-2H-indazole] | 0.01 to 100 | 0.01 to 100 |  |
| CN1CCC(COCc2cc(C(F)(F)F)cc3cnn(C)c23)(c2ccccc2)CC1 [Example 13, 1-Methyl-7-(((1-methyl-4-phenylpiperidin-4-yl)methoxy)methyl)-5-(trifluoromethyl)-1H-indazole] | 0.01 to 100 | 0.01 to 100 |  |
| CN1CCC(COCc2cc(C(F)(F)F)cc3cn(C)nc23)(c2ccccc2)CC1 [Example 14, 2-Methyl-7-(((1-methyl-4-phenylpiperidin-4-yl)methoxy)methyl)-5-(trifluoromethyl)-2H-indazole] | 0.01 to 100 | 0.01 to 100 |  |
| CN1CCC(COCc2cc(C(F)(F)F)cc3cn[nH]c23)(c2ccc(F)cc2)CC1 [Example 16, 7-(((4-(4-Fluorophenyl)-1-methylpiperidin-4-yl)methoxy)methyl)-5-(trifluoromethyl)-1H-indazole] | 0.01 to 100 | 0.01 to 100 |  |
| Cn1ncc2cc(C(F)(F)F)cc(COCC3(c4ccc(F)cc4)CCNCC3)c21 [Example 17, 7-(((4-(4-Fluorophenyl)piperidin-4-yl)methoxy)methyl)-1-methyl-5-(trifluoromethyl)-1H-indazole] | 0.01 to 100 | 0.01 to 100 |  |
| Cn1cc2cc(C(F)(F)F)cc(COCC3(c4ccc(F)cc4)CCNCC3)c2n1 [Example 18, 7-(((4-(4-Fluorophenyl)piperidin-4-yl)methoxy)methyl)-2-methyl-5-(trifluoromethyl)-2H-indazole] | 0.01 to 100 | 0.01 to 100 |  |
| CN1CCC(COCc2cc(C(F)(F)F)cc3cnn(C)c23)(c2ccc(F)cc2)CC1 [Example 19, 7-(((4-(4-Fluorophenyl)-1-methylpiperidin-4-yl)methoxy)methyl)-1-methyl-5-(trifluoromethyl)-1H-indazole] | 0.01 to 100 | 0.01 to 100 |  |
| FC(F)(F)c1cc(COCC2(c3ccccc3)CCNCC2)c2[nH]nc(C3CC3)c2c1 [Example 35, 3-Cyclopropyl-7-(((4-phenylpiperidin-4-yl)methoxy)methyl)-5-(trifluoromethyl)-1H-indazole] | 0.01 to 100 | 0.01 to 100 |  |
| CC(OCC1(c2ccc(F)cc2)CCN(C)CC1)c1cc(N(C)C)cc2cn[nH]c12 (centres unmarked) [Example 51, 7-(1-((4-(4-Fluorophenyl)-1-methylpiperidin-4-yl)methoxy)ethyl)-N,N-dimethyl-1H-indazol-5-amine] | 0.01 to 100 | 0.01 to 100 |  |
| CN1CCC(COCc2cc(-c3ccc(C#N)cc3)cc3cnn(C4CC4)c23)(c2ccccc2)CC1 [Example 65, 4-(1-Cyclopropyl-7-(((1-methyl-4-phenylpiperidin-4-yl)methoxy)methyl)-1H-indazol-5-yl)benzonitrile] | 100 to 300 |  | 0.01 to 100 |
| CN1CCC(COCc2cc(C(F)(F)F)cc3cc[nH]c23)(c2ccccc2)CC1 [Example 66, 7-(((1-Methyl-4-phenylpiperidin-4-yl)methoxy)methyl)-5-(trifluoromethyl)-1H-indole] | 0.01 to 100 | 0.01 to 100 |  |
| CN1CCC(COCc2cc(C(F)(F)F)cc3ccn(C)c23)(c2ccccc2)CC1 [Example 67, 1-Methyl-7-(((1-methyl-4-phenylpiperidin-4-yl)methoxy)methyl)-5-(trifluoromethyl)-1H-indole] | 0.01 to 100 | 0.01 to 100 |  |
| CN1CCC(COCc2cc(C(F)(F)F)cc3cc[nH]c23)(c2ccc(F)cc2)CC1 [Example 68, 7-(((1-Methyl-4-(4-fluorophenyl)piperidin-4-yl)methoxy)methyl)-5-(trifluoromethyl)-1H-indole] | 0.01 to 100 | 0.01 to 100 |  |
| CN1CCC(COCc2cc(C(F)(F)F)cc3ccn(C)c23)(c2ccc(F)cc2)CC1 [Example 69, 1-Methyl-7-(((1-methyl-4-(4-fluorophenyl)piperidin-4-yl)methoxy)methyl)-5-(trifluoromethyl)-1H-indole] | 0.01 to 100 | 0.01 to 100 |  |
| CN1CCC(COCc2cc(C(F)(F)F)cc3[nH]ccc23)(c2ccccc2)CC1 [Example 76, 4-(((1-Methyl-4-phenylpiperidin-4-yl)methoxy)methyl)-6-(trifluoromethyl)-1H-indole 2,2,2-trifluoroacetate] | 0.01 to 100 | 0.01 to 100 |  |
| CN1CCC(COCc2cc(C(F)(F)F)cc3c2ccn3C)(c2ccccc2)CC1 [Example 77, 1-Methyl-4-(((1-methyl-4-phenylpiperidin-4-yl)methoxy)methyl)-6-(trifluoromethyl)-1H-indole 2,2,2-trifluoroacetate] | 0.01 to 100 | 0.01 to 100 |  |
| CN1CCC(COCc2cc(C(F)(F)F)cc3nnn(C)c23)(c2ccc(F)cc2)CC1 [Example 78, 7-(((4-(4-Fluorophenyl)-1-methylpiperidin-4-yl)methoxy)methyl)-1-methyl-5-(trifluoromethyl)-1H-benzo[d][1,2,3]triazole] | 100 to 300 | 0.01 to 100 |  |

More lines, main results first:

| IC50 (NK-1) [nM] | IC50 (hSERT; read-out: SERT IC50) [nM] | Compound | IC50 (hSERT; SERT IC50 (nM)) [nM] |
| --- | --- | --- | --- |
| > 300 | 0.01 to 100 | Cc1cc(COCC2(c3ccccc3)CCNCC2)cc2cn[nH]c12 [Example 1, 7-Methyl-5-(((4-phenylpiperidin-4-yl)methoxy)methyl)-1H-indazole] |  |
| 0.01 to 100 | 0.01 to 100 | Brc1cc(COCC2(c3ccccc3)CCNCC2)c2[nH]ncc2c1 [Example 2, 5-Bromo-7-(((4-phenylpiperidin-4-yl)methoxy)methyl)-1H-indazole] |  |
| 0.01 to 100 | 0.01 to 100 | N#Cc1ccc(-c2cc(COCC3(c4ccccc4)CCNCC3)c3[nH]ncc3c2)cc1 [Example 3, 4-(7-(((4-Phenylpiperidin-4-yl)methoxy)methyl)-1H-indazol-5-yl)benzonitrile] |  |
| 0.01 to 100 | 0.01 to 100 | Cc1cc(COCC2(c3ccccc3)CCNCC2)c2[nH]ncc2c1 [Example 6, 5-Methyl-7-(((4-phenylpiperidin-4-yl)methoxy)methyl)-1H-indazole] |  |
| 0.01 to 100 | 0.01 to 100 | Cc1cc(COCC2(c3ccccc3)CCNCC2)c2c(cnn2C)c1 [Example 7, 1,5-Dimethyl-7-(((4-phenylpiperidin-4-yl)methoxy)methyl)-1H-indazole] |  |
| 0.01 to 100 | 0.01 to 100 | Cc1cc(COCC2(c3ccccc3)CCNCC2)c2nn(C)cc2c1 [Example 8, 2,5-Dimethyl-7-(((4-phenylpiperidin-4-yl)methoxy)methyl)-2H-indazole] |  |
| 0.01 to 100 | 0.01 to 100 | FC(F)(F)c1cc(COCC2(c3ccccc3)CCNCC2)c2[nH]ncc2c1 [Example 9, 7-(((4-Phenylpiperidin-4-yl)methoxy)methyl)-5-(trifluoromethyl)-1H-indazole] |  |
| 0.01 to 100 | 0.01 to 100 | Cn1ncc2cc(C(F)(F)F)cc(COCC3(c4ccccc4)CCNCC3)c21 [Example 11, 1-Methyl-7-(((4-phenylpiperidin-4-yl)methoxy)methyl)-5-(trifluoromethyl)-1H-indazole] |  |
| 0.01 to 100 | 0.01 to 100 | Fc1ccc(C2(COCc3cc(C(F)(F)F)cc4cn[nH]c34)CCNCC2)cc1 [Example 15, 7-(((4-(4-Fluorophenyl)piperidin-4-yl)methoxy)methyl)-5-(trifluoromethyl)-1H-indazole] |  |
| 100 to 300 | 0.01 to 100 | c1ccc(C2(COCc3cccc4cn[nH]c34)CCNCC2)cc1 [Example 34, 7-(((4-Phenylpiperidin-4-yl)methoxy)methyl)-1H-indazole] |  |
| 0.01 to 100 | 0.01 to 100 | FC(F)(F)c1cc(COCC2(c3ccccc3)CCNCC2)c2[nH]nc(Br)c2c1 [Example 36, 3-Bromo-7-(((4-phenylpiperidin-4-yl)methoxy)methyl)-5-(trifluoromethyl)-1H-indazole] |  |
| 0.01 to 100 | 0.01 to 100 | Cc1n[nH]c2c(COCC3(c4ccccc4)CCNCC3)cc(C(F)(F)F)cc12 [Example 37, 3-Methyl-7-(((4-phenylpiperidin-4-yl)methoxy)methyl)-5-(trifluoromethyl)-1H-indazole] |  |
| 0.01 to 100 | 0.01 to 100 | c1ccc(C2(COCc3cc(C4CC4)cc4cn[nH]c34)CCNCC2)cc1 [Example 45, 5-Cyclopropyl-7-(((4-phenylpiperidin-4-yl)methoxy)methyl)-1H-indazole] |  |
